According to the supplement of paper PMC10307832:

Assays:
Test in all cases: relative viability (nuclei count vs DMSO), 5 days (fraction); higher = more cells survive
AZD5582 + Dasatinib = compound: C[C@@H](C(=O)N[C@@H](C1CCCCC1)C(=O)N2CCC[C@H]2C(=O)N[C@@H]3[C@@H](CC4=CC=CC=C34)OCC#CC#CCO[C@@H]5CC6=CC=CC=C6[C@@H]5NC(=O)[C@@H]7CCCN7C(=O)[C@H](C8CCCCC8)NC(=O)[C@H](C)NC)NC [AZD5582] + Cc1nc(Nc2ncc(C(=O)Nc3c(C)cccc3Cl)s2)cc(N2CCN(CCO)CC2)n1 [Dasatinib] (partner 0.075 µM)
How it was run: (§1)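 Relative viability was taken as the ratio of nuclei in treated wells to nuclei in vehicle wells. Lung cancer cell lines in 1536-well plates received compounds by pin tool one day after seeding, either one drug alone or a fixed anchor-drug dose plus five library-drug doses (not always all listed) in √10 steps. Nuclei were counted on 4× images after 5 days of treatment, and values are medians of duplicate plates.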

[1] = compound: Cn1nnc2c(C(N)=O)ncn2c1=O [Temozolomide] + CC(=O)Nc1cccc(-n2c(=O)n(C3CC3)c(=O)c3c(Nc4ccc(I)cc4F)n(C)c(=O)c(C)c32)c1 [Trametinib] (partner 0.02 µM)
How it was run: as §1

Temozolomide + Foretinib = compound: Cn1nnc2c(C(N)=O)ncn2c1=O [Temozolomide] + COc1cc2c(Oc3ccc(NC(=O)C4(C(=O)Nc5ccc(F)cc5)CC4)cc3F)ccnc2cc1OCCCN1CCOCC1 [Foretinib] (partner 0.25 µM)
How it was run: as §1

[2] = compound: Cn1nnc2c(C(N)=O)ncn2c1=O [Temozolomide] + CS(=O)(=O)N1CCN(Cc2cc3nc(-c4cccc5[nH]ncc45)nc(N4CCOCC4)c3s2)CC1 [Pictilisib] (partner 1 µM)
How it was run: as §1

| Cell Line | relative viability (AZD5582 + Dasatinib; first compound 0.001581 µM) | relative viability (AZD5582 + Dasatinib; first compound 0.005 µM) | relative viability (AZD5582 + Dasatinib; first compound 0.05 µM) | relative viability ([1]; first compound 0.2 µM) | relative viability ([1]; first compound 0.6325 µM) | relative viability ([1]; first compound 2 µM) | relative viability ([1]; first compound 6.325 µM) | relative viability ([1]; first compound 20 µM) | relative viability (Temozolomide + Foretinib; first compound 0.2 µM) | relative viability (Temozolomide + Foretinib; first compound 0.6325 µM) | relative viability (Temozolomide + Foretinib; first compound 2 µM) | relative viability (Temozolomide + Foretinib; first compound 6.325 µM) | relative viability (Temozolomide + Foretinib; first compound 20 µM) | relative viability ([2]; first compound 0.2 µM) | relative viability ([2]; first compound 0.6325 µM) | relative viability ([2]; first compound 2 µM) | relative viability ([2]; first compound 6.325 µM) | relative viability ([2]; first compound 20 µM) | relative viability (AZD5582 + Dasatinib; first compound 0.01581 µM) |
| --- | --- | --- | --- | --- | --- | --- | --- | --- | --- | --- | --- | --- | --- | --- | --- | --- | --- | --- | --- |
| HCC-366 | 0.614 | 0.658 | 0.647 | 0.395 | 0.31 | 0.427 | 0.425 | 0.329 | 0.941 | 0.94 | 0.947 | 0.932 | 0.528 | 0.164 | 0.152 | 0.198 | 0.212 | 0.219 |  |
| HCC-827 | 0.342 | 0.218 | 0.411 | 0.56 | 0.593 | 0.286 | 0.532 | 0.136 | 1.14 | 1.01 | 0.994 | 0.894 | 0.153 | 0.82 | 0.958 | 1.06 | 1.05 | 0.313 | 0.289 |
| HOP-62 | 0.657 | 0.797 | 0.689 | 0.395 | 0.445 | 0.399 | 0.424 | 0.367 | 1.33 | 1.08 | 1.14 | 1.1 | 1.04 | 0.918 | 0.961 | 0.816 | 0.385 | 0.545 | 0.506 |
| IA-LM |  |  |  |  |  |  |  |  | 1.35 | 1.23 | 1.19 | 1.03 | 1.34 | 0.279 | 0.376 | 0.385 | 0.266 | 0.328 |  |
| LC-2-ad | 0.629 | 0.774 | 0.531 | 0.935 | 0.926 | 0.912 | 0.895 | 0.859 | 0.838 | 1 | 0.971 | 0.898 | 0.765 | 0.554 | 0.546 | 0.511 | 0.593 | 0.481 | 0.461 |
| LCLC-97TM1 | 0.748 | 0.91 | 0.825 | 0.222 | 0.161 | 0.234 | 0.199 | 0.173 | 0.919 | 0.906 | 0.86 | 0.979 | 0.934 | 0.197 | 0.224 | 0.163 | 0.178 | 0.17 | 0.768 |
| LCLC-103H | 0.411 | 0.475 | 0.152 | 0.725 | 0.624 | 0.686 | 0.678 | 0.617 | 0.834 | 0.787 | 0.895 | 0.73 | 0.713 | 0.614 | 0.523 | 0.816 | 0.509 | 0.62 | 0.403 |
| LK-2 | 0.209 | 0.36 | 0.266 | 0.653 | 0.685 | 0.663 | 0.653 | 0.489 | 1.25 | 1.44 | 1.19 | 0.742 | 0.519 | 0.48 | 0.568 | 0.575 | 0.353 | 0.305 | 0.322 |
| LOU-NH91 | 0.553 | 0.565 | 0.657 | 0.731 | 0.806 | 0.793 | 0.806 | 0.7 | 0.674 | 0.913 | 0.941 | 0.568 | 0.569 | 0.512 | 0.547 | 0.551 | 0.523 | 0.497 | 0.468 |
